# Data from patent US9133457B2, “Methods of incorporating amino acid analogs into proteins” (California Institute of Technology, priority 2004, dated 2015).
# Read-outs that look alike come from different tables or passages of the source.
# B1: Cerezyme: recombinant analogue of the human enzyme β-Glucocerebrosidase, imiglucerase for injection (protein, UniProt P04062 40-536, looked up, variant R495H)
# Lysosomal acid …: ARPCIPKSFGYSSVVCVCNATYCDSFDPPTFPALGTFSRYESTRSGRRMELSMGPIQANHTGTGLLLTLQPEQKFQKVKGFGGAMTDAAALNILALSPPAQNLLLKSYFSEEGIGYNIIRVPMASCDFSIRTYTYADTPDDFQLHNFSLPEEDTKLKIPLIHRALQLAQRPVSLLASPWTSPTWLKTNGAVNGKGSLKGQPGDIYHQTWARYFVKFLDAYAEHKLQFWAVTAENEPSAGLLSGYPFQCLGFTPEHQRDFIARDLGPTLANSTHHNVRLLMLDDQRLLLPHWAKVVLTDPEAAKYVHGIAVHWYLDFLAPAKATLGETHRLFPNTMLFASEACVGSKFWEQSVRLGSWDRGMQYSHSIITNLLYHVVGWTDWNLALNPEGGPNWVRNFVDSPIIVDITKDTFYKQPMFYHLGHFSKFIPEGSQRVGLVASQKNDLDAVALMHPDGSAVVVVLNRSSKDVPLTIKDPAVGFLETISPGYSIHTYLWHRQ
# modifications: imiglucerase
# notes: recombinant analogue of the human enzyme β-Glucocerebrosidase, imiglucerase for injection
# B2: GCSF: GCSF modified using conventional amine-PEGylation technologies (conjugate, UniProt P09919 31-207, looked up)
# Granulocyte …: TPLGPASSLPQSFLLKCLEQVRKIQGDGAALQEKLVSECATYKLCHPEELVLLGHSLGIPWAPLSSCPSQALQLAGCLSQLHSGLFLYQGLLQALEGISPELGPTLDTLQLDVADFATTIWQQMEELGMAPALQPTQGAMPAFASAFQRRAGGVLVASHLQSFLEVSYRVLRHLAQP
# modifications: amine PEGylation
# notes: GCSF modified using conventional amine-PEGylation technologies
# How the values were obtained:
# [1] = biological target: T1, mu-yPheRS (modified yeast PheRS, Thr415Gly) (Saccharomyces cerevisiae, UniProt P15625, T415G); experiment: adenosine triphosphate-pyrophosphate exchange assay (amino acid activation); format: biochemical; details: larger than Phe
# T1 construct: made in house
# T1 sequence (P15624 whole entry): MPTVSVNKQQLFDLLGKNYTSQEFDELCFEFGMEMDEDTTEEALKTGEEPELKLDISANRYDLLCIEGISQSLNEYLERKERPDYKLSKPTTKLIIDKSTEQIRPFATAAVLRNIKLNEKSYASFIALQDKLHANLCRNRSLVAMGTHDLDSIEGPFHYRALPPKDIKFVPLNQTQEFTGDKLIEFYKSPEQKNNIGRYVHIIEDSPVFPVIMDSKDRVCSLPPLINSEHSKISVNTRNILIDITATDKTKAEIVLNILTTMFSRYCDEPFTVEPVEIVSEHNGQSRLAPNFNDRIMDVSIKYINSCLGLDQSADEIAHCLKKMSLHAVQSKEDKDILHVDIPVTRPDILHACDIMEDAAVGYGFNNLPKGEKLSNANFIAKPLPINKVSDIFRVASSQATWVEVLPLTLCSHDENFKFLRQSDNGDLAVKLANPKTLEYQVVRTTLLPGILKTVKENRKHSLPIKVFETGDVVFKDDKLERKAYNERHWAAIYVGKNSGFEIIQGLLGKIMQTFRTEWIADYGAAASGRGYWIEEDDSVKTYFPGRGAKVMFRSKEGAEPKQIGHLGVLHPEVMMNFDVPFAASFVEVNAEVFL
# T1 sequence (P15625 whole entry T415G): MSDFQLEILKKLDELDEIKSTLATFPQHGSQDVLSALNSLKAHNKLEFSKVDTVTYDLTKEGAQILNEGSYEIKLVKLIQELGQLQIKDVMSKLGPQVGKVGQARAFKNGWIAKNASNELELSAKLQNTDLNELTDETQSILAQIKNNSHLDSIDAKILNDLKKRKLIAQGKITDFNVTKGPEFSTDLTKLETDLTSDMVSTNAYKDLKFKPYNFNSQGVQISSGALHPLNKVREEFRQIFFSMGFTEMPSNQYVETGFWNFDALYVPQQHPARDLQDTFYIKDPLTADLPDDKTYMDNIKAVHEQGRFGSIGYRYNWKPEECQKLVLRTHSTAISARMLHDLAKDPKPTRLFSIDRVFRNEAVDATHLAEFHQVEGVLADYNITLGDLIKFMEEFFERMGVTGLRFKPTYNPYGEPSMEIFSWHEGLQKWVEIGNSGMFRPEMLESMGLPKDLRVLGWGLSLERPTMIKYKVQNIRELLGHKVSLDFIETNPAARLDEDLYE
# Protocol: The modified yeast PheRS (mu-yPheRS) was prepared by introduction of a Thr415Gly mutation in the α-subunit of the synthetase (Datta el al., J. Am. Chem. Soc. 124: 5652, 2002). The kinetics of activation of Nal and Phe by mu-yPheRS were analyzed in vitro via the adenosine triphosphate-pyrophosphate exchange assay.
# E. coli strain (K10-F6) = experiment: incorporation of Nal into mDHFR at Phe codons UUU/UUC (amino acid analysis, MALDI of tryptic digests); format: cell-based
# Protocol: In this construct, four of the Phe residues of mDHFR are encoded by UUC codons, five by UUU. A full-length copy of the mu-yPheRS gene, under control of a constitutive tac promoter, was inserted into pQE16. […] E. coli transformants harboring these two plasmids were incubated in Phe-depleted minimal medium supplemented with 3 mM Nal and were then treated with 1 mM IPTG to induce expression of mDHFR. Although the E. coli strain (K10-F6) used in this study is a Phe auxotroph, (see Furter, supra) a detectable level of mDHFR was expressed even under conditions of nominal depletion of Phe, probably because of release of Phe through turnover of cellular proteins. In negative control experiments, mDHFR was expressed in the absence of either ytRNA^PheAAA or mu-yPheRS. […] For mDHFR isolated from the strain harboring the heterologous pair, amino acid analysis indicated replacement of 4.4 of the 9 Phe residues by Nal.
# Tryptic digests of mDHFR were analyzed to determine the occupancy of individual Phe sites. Peptide 1UUU (residues 184-191, […], SEQ ID NO: 1) contains a Phe residue encoded as UUU, whereas peptides 2UUC (residues 62-70, […], SEQ ID NO: 2) and 3UUC (residues 26-39, […], SEQ ID NO: 3) each contain a Phe residue encoded as UUC. In the absence of Nal, peptide 1UUU was detected with a monoisotopic mass of 1105.55 Da, in accord with its theoretical mass (FIG. 2A). […] As described earlier, each substitution of Nal for Phe leads to a mass increase of 50.06 Da; the observed shift in mass is thus consistent with replacement of Phe by Nal in response to the UUU codon. Liquid chromatography-tandem mass spectrometry (LC/MS/MS) confirmed this assignment.
# Similar analyses were conducted for peptides 2UUC and 3UUC. In the absence of added Nal, the observed masses of peptides 2UUC and 3UUC are 1135.61 (FIG. 2A) and 1682.89 Da (FIG. 2D), respectively, as expected. […] Nal incorporation thus appears to be rare at UUC codons under the conditions used here for protein expression.
# There is at least a formal possibility that the observed codon-biased incorporation of Nal might be dependent on codon context rather than, or in addition to, codon identity. MALDI sampling errors are also possible. To test these possibilities, a mutant mDHFR gene was prepared by mutating the UUU codon in peptide 1UUU to UUC, and the UUC codon in peptide 3UUC to UUU. In the resulting peptide 1UUC, the signal indicating incorporation of Nal was only slightly above background (FIG. 2C), whereas for peptide 3UUU, Nal is readily detected (FIG. 2F). Nal incorporation is unambiguously codon-biased to UUU.
# [2] = biological target: T2, E. coli leucyl-tRNA synthetase (LeuRS) (Escherichia coli, UniProt P07813); experiment: incorporation of Nal into mDHFR at Leu codon UUG, effect of LeuRS inhibitor; format: cell-based
# T2 construct: endogenous in cells; host or cells: E. coli expression strain (Phe/Leu auxotroph) carrying ytRNAPheCAA and modified yeast PheRS
# T2 sequence (P07813 whole entry): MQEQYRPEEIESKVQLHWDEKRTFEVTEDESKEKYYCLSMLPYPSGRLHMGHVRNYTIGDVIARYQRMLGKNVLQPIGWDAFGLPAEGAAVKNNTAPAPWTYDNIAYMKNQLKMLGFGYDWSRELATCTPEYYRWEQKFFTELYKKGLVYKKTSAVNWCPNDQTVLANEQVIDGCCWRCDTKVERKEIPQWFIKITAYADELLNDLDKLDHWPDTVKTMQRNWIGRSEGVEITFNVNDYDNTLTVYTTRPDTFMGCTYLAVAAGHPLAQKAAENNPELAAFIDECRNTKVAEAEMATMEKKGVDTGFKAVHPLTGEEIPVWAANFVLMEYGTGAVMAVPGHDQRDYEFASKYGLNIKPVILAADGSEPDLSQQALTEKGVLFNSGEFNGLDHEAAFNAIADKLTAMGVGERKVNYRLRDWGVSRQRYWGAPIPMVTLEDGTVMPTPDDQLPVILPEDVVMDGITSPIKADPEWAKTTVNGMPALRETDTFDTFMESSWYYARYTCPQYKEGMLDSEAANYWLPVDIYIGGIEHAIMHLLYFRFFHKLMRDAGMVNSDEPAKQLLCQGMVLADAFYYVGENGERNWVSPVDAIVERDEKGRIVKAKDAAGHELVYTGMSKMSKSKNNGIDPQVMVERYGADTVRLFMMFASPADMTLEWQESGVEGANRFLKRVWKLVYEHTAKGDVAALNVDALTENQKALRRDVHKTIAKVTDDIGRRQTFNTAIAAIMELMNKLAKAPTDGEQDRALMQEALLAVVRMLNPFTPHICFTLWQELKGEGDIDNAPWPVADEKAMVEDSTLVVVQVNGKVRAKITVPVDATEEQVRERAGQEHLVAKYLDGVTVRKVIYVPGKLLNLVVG
# Source text: In this example, multiple-site-specific incorporation of an unnatural amino acid into murine dihydrofolate reductase (mDHFR) in response to a sense codon was realized by use of an E. coli strain outfitted with a yeast transfer RNA (ytRNA^pheCAA) capable of Watson-Crick base-pairing with the leucine (Leu) codon UUG. ytRNA^pheCAA was charged with L-3-(2-naphthyl)alanine (Nal) by a co-expressed modified yeast phenylalanine tRNA synthetase. See schematic diagram in FIG. 3.
# Incomplete occupancy of the UUG codon by Nal is due at least in part to competition with leucine-charged E. coli tRNA^Leus. In an attempt to reduce competition by E. coli tRNA^Leus, use of a mutant E. coli strain lacking tRNA^LeuCAA and addition of an E. coli leucyl-tRNA synthetase (LeuRS) inhibitor were tested. A Phe/Leu double auxotrophic strain derived from the tRNA^LeuCAA-deficient strain XA106 (CGSC at Yale) was tested for incorporation of Nal at the UUG codon.
# Replacement of Leu by Nal was detected in MALDI mass spectra of tryptic fragments of mDHFR (FIG. 4). […] Furthermore, Nal incorporation was not detected when UUG was mutated to UUA in Peptide 3. No signal corresponding to Peptide 4CUG (Nal) was detected, whereas that corresponding to Peptide 4CUG was detected at 904.54 mass units. […]
# Escherichia coli = details: cited from earlier work
# [3] = biological target: T2, E. coli leucyl-tRNA synthetase (LeuRS); details: in vitro; cited from earlier work
# [4] = degree similar to Ceredase; cited from earlier work
# [5] = cited from earlier work
# [6] = modified using conventional amine-PEGylation; cited from earlier work
molecule,measurement,setting,value
"N[C@@H](Cc1ccc2ccccc2c1)C(=O)O [Nal, L-3-(2-naphthyl)alanine]",specificity constant relative to that for Phe,[1],8 fold
same,Nal incorporation at the UUU codon,"E. coli strain (K10-F6); MALDI signal intensities, peptide 1UUU",dominant
same,Nal incorporation at UUC codons,"E. coli strain (K10-F6); MALDI, peptides 2UUC and 3UUC",rare
same,Phe residues of mDHFR replaced by Nal,"E. coli strain (K10-F6); of the 9 Phe residues, strain harboring ytRNA^PheAAA and mu-yPheRS, 3 mM Nal, amino acid analysis",4.4
same,incorporation of Nal into mDHFR,"E. coli strain (K10-F6); without ytRNA^PheAAA or mu-yPheRS, amino acid analysis",no incorporation
same,re-assignment of the UUG codon to Nal,"[2]; ytRNA^PheCAA and modified yeast PheRS, mass spectrometry of tryptic digests",partially re-assigned
CC1(C)S[C@@H]2[C@H](NC(=O)[C@H](N)c3ccccc3)C(=O)N2[C@H]1C(=O)O [ampicillin],IC50 of cells,Escherichia coli; SctRNAGlnCUA coexpressed with ScGlnRS,about 500 μg/mL
same,IC50 of cells,Escherichia coli; only SctRNAGlnCUA expressed,20 µg/mL
"CN(C)CC(N)C(=O)O (racemic) [AZL, 4-Aza-DL-leucine]",effect on occupancy of the UUG codon by Nal,[2]; 1 mM AZL in the media,enhanced occupancy
same,inhibition of E. coli LeuRS,[3],competitive inhibitor
B1,clinical effect,[4],"improved anemia and thrombocytopenia, reduced spleen and liver size, and decreased cachexia"
same,time to steady-state enzymatic activity,[5]; during one-hour intravenous infusions,≤ 30 min
same,"plasma clearance, mean±S.D.",[5]; in vivo,14.5 ± 4.0 mL/min/kg
same,"volume of distribution corrected for weight, mean±S.D.",[5]; in vivo,0.12 ± 0.02 L/kg
B2,reduction of bioactivity,[6],"1,000 fold"
